Assay [1] has as its system platelet aggregation. Description: Ex vivo platelet aggregation after peptide injection in canine coronary thrombosis model. The conditions noted are these: 10 mg/kg. Also noted: species or system dog. On the procedure: For all ex vivo studies (see FIGS. 3a, 3b1, 3b2, 3b3, 3c1 and 3c2), control aggregation values were standardized to the percentages of light transmission observed in PRP and PPP samples (0% and 100%, respectively).
(§1) Animals were randomly assigned to two treatment groups: vehicle control (i.e., normal saline) or RGD peptides at various concentrations. Peptides were administered intra-atrially in both bolus and continuous injections. […] A continuous infusion of the same peptide was then started immediately after completion of this initial injection. Animals that received a 5 mg/kg bolus also received a 5 mg/kg/hr infusion, whereas animals that received a 10 mg/kg bolus also received a 10 mg/kg/hr infusion. The anti-thrombotic effects of the peptides were monitored until 30 minutes after the occurrence of a persistent, occlusive thrombus or five hours after the initiation of electrical stimulation (whichever resulted first). If an occlusive thrombus had not developed within four hours after the initiation of current, the peptide infusion was stopped.
(§2) Platelet counts and ex vivo aggregation studies were performed one hour before and 1, 3, and 5 hours after application of anodal direct current.
Platelet aggregation was also determined ex vivo at one, three, and five hours after current application. For these studies, arachidonic acid, or collagen was again used to stimulate the platelets.
The average aggregation values determined in these studies for all of the peptide treatments are depicted in FIGS. 3a, 3b1, 3b2, 3b3, 3c1, and 3c2. […] The control responses in these studies were 70-80% of maximum. […] Here the control responses were 55-80% of maximum.

Assay [2] relates to canine platelet aggregation. Description: In vitro canine platelet aggregation stimulated by ADP, arachidonic acid or collagen. Type of assay: cell-based, dog. The note with it: 10 μm ADP, […] arachidonic acid or 9.6 micrograms/ml collagen; PRP; read-out: IC50 against canine platelet aggregation. On the procedure: as §2
Epinephrine (550 nM) was used to prime platelets before stimulation with arachidonic acid. Peptides were added in 1% dilutions to the PRP solutions.

Assay [3] relates to Gore-tex vascular graft thrombosis. Briefly: Platelet and fibrinogen uptake by Gore-tex grafts in baboon ex vivo shunt. On the procedure: Adult male baboons (weighing 16 to 25 kg) were used in these studies. These were sedated with ketamine hydrochloride (200 to 250 mg intramuscular injection) and maintained under anesthesia with sodium pentobarbital (50 to 75 mg administered intravenously as necessary).
Twenty-four hours before the ex vivo shunt was established, platelets were isolated from 500 ml of blood from the test animal and labelled with ca. 500 microcuries of indium-111 oxine (Medi+Physics, Emeryville, Calif.), which irreversibly and specifically binds to platelets with an efficiency of 50%. Immediately after labelling, these platelets were then injected back into the animal and allowed to circulate for 24 hours. Immediately before the start of the study, fibrinogen that had been isolated from the animal and labelled with iodine-131 (DuPont Nuclear, Boston, Mass.) was also injected back into the animal. Also at this time, baseline determinations of the clotting and template bleeding times were made, and blood samples were drawn for hematology studies.
To establish the ex vivo shunt, the femoral artery and vein were percutaneously cannulated with introducer catheters (KMA Inc., Mansfield, Mass.). The catheters were then connected to medical-grade, heparin-coatedsilastic tubing (2.59 mm internal diameter, (Extracorporeal Medical Specialties, Inc., King of Prussia, Pa.). […] Finally, a 5 cm-long test segment of a 4 mm (internal diameter) vascular graft was inserted at the apex of the circuit. The graft used in these studies was Gore-tex (expanded polytetrafluoroethylene, (W. L. Gore and Associates, Inc., Flagstaff, Ariz.). An electromagnetic flow probe was then inserted into the tubing circuit to measure blood flow, which was maintained at 100 ml/min. by varying the resistance imported by a partially occluding screw clamp that was distal to the probe. Finally, a 5 cm-long test segment of a 4 mm (internal diameter) vascular graft was inserted at the apex of the circuit. The graft used in these studies was Gore-tex (expanded polytetrafluoroethylene, W. L. Gore and Associates, Inc., Flagstaff, Ariz.).
Platelet deposition onto the grafts was monitored by dynamic scanning with a gamma camera (Sigma 400, Ohio Nuclear, Inc., Sohon, Ohio), which detects the gamma radiation emitted by the indium^111 -labelled platelets. Once the circuit was in place, the animal was placed under this camera, and blood flow was initiated. Scans were then taken at the rate of one frame per two minutes for two hours. The data from these scans were collected on a dedicated Digital MDA computer (Maynard, Mass.). […]

The next assay concerns coronary thrombosis. Description: Electrically induced canine coronary thrombosis, time to full occlusion. The format is in vivo, dog. The conditions noted are these: 10 mg/kg bolus + 10 mg/kg/hr infusion, intra-atrial. On the procedure:
Male mongrel dogs weighing 14 to 20 kg were selected based on proper aggregation of their platelets in response to arachidonic acid, collagen, and adenosine disphosphate (ADP) and based on similar weights and hemodynamic properties.
Before surgery, the animals were anesthetized with sodium pentobarbital (30 mg/kg, i.v.) and then intubated and ventilated on room air with positive pressure using a respirator (Harvard Apparatus, S. Natick, Mass.) at a volume of 30 ml/kg and a frequency of 12 breaths/min. Surgery, performed under aseptic conditions, was begun with the placement of cannulae into the left carotid artery and jugular vein for monitoring arterial blood pressure (Statham P23 pressure transducer, Gould, Inc., Cardiovascular Products, Oxnard, Calif.) and administering intravenous fluids.
The heart was exposed via a left thoracotomy through the 5th intercostal space. A 2-cm segment of the left circumflex coronary artery (LCCA) was isolated from surrounding tissue by blunt dissection. […] The intra-coronary electrode was constructed by attaching a 25-gauge hypodermic needle tip to a 30-gauge Teflon-insulated silver-coated copper wire. The mechanical occluder was constructed of stainless steel in a C shape with a Teflon screw (2 mm diameter) on top. It was adjusted to control vessel circumference and decrease the reactive hyperemic flow due to a 10-sec (full) occlusion by 50-70% without affecting basal coronary blood flow (FIG. 1c). A monopolar epicardial electrode was sutured to the surface of the ventricle in the region of LCCA distribution to monitor ischemic changes in the electrocardiogram (ECG). The left atrium was cannulated with polythylene tubing for administration of the peptide. Continuous recordings of blood pressure, limb lead II ECG, epicardial electrogram, and mean and phasic LCCA blood flow were obtained on a Model 7 polygraph (Grass Instrument Co., Quincy, Mass.).
One hour after the completion of surgery, a 100 micro-amp continuous anodal direct current delivered from a 9 volt nickel-cadmium battery was applied to the intimal surface of the LCCA. The anode of the battery was in series with a 250,000 ohm potentiometer and the intraluminal coronary artery electrode. The electric circuit was completed by placing the cathode in a subcutaneous site. Electrical stimulation was applied for three hours. At the conclusion of each experiment, the heart was fibrillated electrically and quickly removed, and the LCCA was dissected free as far as possible to verify the position of the implanted anodal electrode.
as §1
Coronary thrombosis was quantified as the time to full occlusion. The effects of the various peptide treatments on coronary thrombosis is illustrated in FIG. 4.

Assay [4] deals with platelet aggregation. Description: Ex vivo ADP-stimulated platelet aggregation in baboon PRP. The conditions noted are these: animal 2; ADP 10 μm; 0, 1 and 2 hours. On the procedure:
At one- and two-hour time points, template bleeding times were measured, and blood samples were drawn to assess the hematology aggregation studies. Platelet aggregation studies were performed as described in Example V using ADP as the stimulus.
In addition, platelet aggregation studies were conducted on PRP derived from the second animal. Whole blood was drawn at three time points (0, 1 and 2 hours) of both control and experimental shunts.

The mark [5] stands for this setting: animal 1, two bolus IV injections of 10 mg/kg.
[6] abbreviates: animal 2, 10 mg/kg IV bolus + 10 mg/kg/hr infusion for two hours.

By IC50 is commonly meant the point on the concentration scale where inhibition reaches its midpoint. With GPenGHRGDLRCA, in the assay on platelet aggregation [1] (all three time points), the “ex vivo inhibition of AA-stimulated aggregation relative to control” value is given as 43-70% and the “ex vivo inhibition of collagen-stimulated aggregation relative to control” value is 12-50%. The “ex vivo inhibition of ADP-stimulated aggregation” value in the assay with platelet aggregation [1] (one, three, five hours) was “substantially inhibited”. In addition, the IC50 in assay [2] lay in the range of 15 to 30 µM. Also, in assay [3] (setting [5]), the “reduction in I131-fibrinogen uptake by graft” value came out at 79% and the “reduction in In111-platelet uptake by graft” value is on record as 90%. In assay [3] (setting [6]), the “reduction in labelled fibrinogen uptake by graft” value was determined as 78% and the “reduction in labelled platelet uptake by graft” value was determined as 84%. Also, the “time to full occlusion” value in the assay on coronary thrombosis was “did not significantly influence”. Further, the “ex vivo platelet response to ADP” value in the assay with platelet aggregation [4] is reported as “completely unresponsive”.

Values taken from patent publication US5648330A, “Method and composition for treating vascular graft occlusion” (La Jolla Cancer Research Foundation, priority 1995, dated 1997).
